According to patent US8883449B2, “Single-chain insulin” (Novo Nordisk A/S, priority 2003, dated 2014):
Like-named read-outs stand apart in the source and are kept apart here. Bridges are numbered along the chain shown (N, C = ends). Where no end group is shown, it is not given here.

Target: human insulin receptor (Homo sapiens, UniProt P06213)
Format: binding
Description: Alternatively the insulin receptor binding was tested in a hIRBHK membrane assay as follows: • Binding of [^125I]-human insulin to membrane-associated recombinant human insulin receptor isoform A (hIR-A) • Reagents: • ^125I-Insulin: Novo Nordisk A/S, mono ^125I-(TyrA14) human insulin • Human Insulin: Novo Nordisk A/S, • Human serum albumin: Dade Behring, ORHA 194 C30, lot 455077 • Plastic ware: Packard OptiPlate™-96, #6,005,290 • Scintillant: Amersham Biosciences, WGA coated PVT microspheres, # RPNQ0001 • Cells: BHK tk^− ts13 cells expressing recombinant human insulin receptor isoform A (hIR12-14).
Extraction of membrane-associated insulin receptors: BHK cells from a ten-layer cell factory were harvested and homogenised in 25 ml of ice-cold buffer (25 mM HEPES pH 7.4, 2.5 mM CaCl2, 1 mM MgCl2, 250 mg/l bacitracin, 0.1 mM Pefablock). The homogenate was layered carefully on 41% sucrose cushions, centrifuged in the ultracentrifuge at 95,000×g for 75 minutes in a Beckman SW28 rotor at 4° C. The plasma membranes were collected from the top of the sucrose cushion, diluted 1:4 with buffer and centrifuged at 40,000×g for 45 min in a Beckman SW28 rotor. The pellets were suspended in buffer (25 mM HEPES pH 7.4, 2.5 mM CaCl2, 1 mM MgCl2, 250 mg/l bacitracin, 0.1 mM Pefablock) and stored at −80° C.
Radioligand binding to membrane-associated insulin receptors was performed in duplicate in 96-well OptiPlates. Membrane protein was incubated for 150 minutes at 25° C. with […] [^125I-Tyr^A14]-human insulin in a total volume of […] assay buffer (50 mM HEPES, 150 mM NaCl, 5 mM MgSO4, 0.01% Triton X-100, 0.1% HSA, Complete™ EDTA-free protease inhibitors) and increasing concentrations of human insulin or insulin analogues (typically between 0.01 and 300 nM). The assay was terminated by addition of 50 μl of a suspension of WGA-coated PVT microspheres (20 mg/ml). Following 5 minutes of slight agitation, the plate was centrifuged at 1500 RPM for 6 minutes, and bound radioactivity quantified by counting in a Packard TopCount NXT after a delay of 60 minutes. […]

[1] = acylated single-chain insulins of Examples 2-4

human insulin receptor, sequence (P06213 28-746 isoform P06213-2 limits assumed): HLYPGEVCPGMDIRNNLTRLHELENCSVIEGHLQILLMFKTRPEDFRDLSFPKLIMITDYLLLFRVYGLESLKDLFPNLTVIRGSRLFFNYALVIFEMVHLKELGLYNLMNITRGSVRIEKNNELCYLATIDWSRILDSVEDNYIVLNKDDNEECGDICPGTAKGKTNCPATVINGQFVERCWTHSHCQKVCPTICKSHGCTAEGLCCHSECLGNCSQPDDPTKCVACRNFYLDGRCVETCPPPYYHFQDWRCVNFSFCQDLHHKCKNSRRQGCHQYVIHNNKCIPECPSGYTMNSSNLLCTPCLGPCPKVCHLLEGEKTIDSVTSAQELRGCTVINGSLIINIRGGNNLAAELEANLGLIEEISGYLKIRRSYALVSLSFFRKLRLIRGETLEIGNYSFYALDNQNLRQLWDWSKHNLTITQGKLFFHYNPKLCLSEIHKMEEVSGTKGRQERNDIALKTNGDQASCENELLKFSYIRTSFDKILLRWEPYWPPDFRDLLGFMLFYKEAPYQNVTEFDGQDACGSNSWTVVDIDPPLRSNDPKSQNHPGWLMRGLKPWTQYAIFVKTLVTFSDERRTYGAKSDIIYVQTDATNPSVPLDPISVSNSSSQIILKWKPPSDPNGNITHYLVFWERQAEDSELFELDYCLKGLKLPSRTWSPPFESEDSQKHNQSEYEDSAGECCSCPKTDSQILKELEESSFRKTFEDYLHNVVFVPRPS
human insulin receptor, sequence (P06213 763-1382 partner limits assumed): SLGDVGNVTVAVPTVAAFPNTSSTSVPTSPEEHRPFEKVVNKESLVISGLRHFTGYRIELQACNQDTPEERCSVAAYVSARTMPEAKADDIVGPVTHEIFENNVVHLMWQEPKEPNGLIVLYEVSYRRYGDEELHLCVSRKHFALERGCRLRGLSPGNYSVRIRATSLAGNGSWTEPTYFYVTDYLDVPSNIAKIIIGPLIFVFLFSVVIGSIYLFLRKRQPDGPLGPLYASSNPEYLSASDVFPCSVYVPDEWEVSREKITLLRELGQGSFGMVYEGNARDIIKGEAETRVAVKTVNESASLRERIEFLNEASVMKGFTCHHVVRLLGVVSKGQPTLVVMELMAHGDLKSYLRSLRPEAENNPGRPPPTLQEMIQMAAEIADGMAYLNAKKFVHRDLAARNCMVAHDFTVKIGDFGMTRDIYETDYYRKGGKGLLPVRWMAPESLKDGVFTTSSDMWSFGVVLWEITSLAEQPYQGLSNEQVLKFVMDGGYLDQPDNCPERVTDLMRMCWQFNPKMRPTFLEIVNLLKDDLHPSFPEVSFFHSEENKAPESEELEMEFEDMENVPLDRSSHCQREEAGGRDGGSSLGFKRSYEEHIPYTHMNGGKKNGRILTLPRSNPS

Row | IC50 relative to human insulin in %. [%] | Compound | IC50 relative to human insulin in %. [1] [%]
1 | 2 | CCCCCCCCCCCCCC(=O)NCCCC[C@@H]1NC(=O)CNC(=O)[C@H](CC(C)C)NC(=O)CNC(=O)[C@H]([C@@H](C)O)NC(=O)[C@H](CCCNC(=N)N)NC(=O)[C@@H]2CCCN2C(=O)[C@H]([C@@H](C)O)NC(=O)[C@H](Cc2ccc(O)cc2)NC(=O)[C@H](Cc2ccccc2)NC(=O)[C@H](Cc2ccccc2)NC(=O)CNC(=O)[C@H](CCCNC(=N)N)NC(=O)[C@H](CCC(=O)O)NC(=O)CNC(=O)[C@@H]2CSSC[C@@H](C(=O)NCC(=O)O)NC(=O)[C@H](Cc3ccc(O)cc3)NC(=O)[C@H](CCC(N)=O)NC(=O)[C@H](CCC(=O)O)NC(=O)[C@H](CC(C)C)NC(=O)[C@H](CCC(N)=O)NC(=O)[C@H](Cc3ccc(O)cc3)NC(=O)[C@H](CC(C)C)NC(=O)[C@H](CO)NC(=O)[C@@H]3CSSC[C@H](NC(=O)[C@H](CCC(N)=O)NC(=O)[C@H](CCC(=O)O)NC(=O)[C@H](C(C)C)NC(=O)[C@H]([C@@H](C)CC)NC(=O)CNC(=O)[C@H](CCC(N)=O)NC(=O)CNC1=O)C(=O)N[C@@H](CSSC[C@H](NC(=O)[C@H](CC(C)C)NC(=O)[C@H](Cc1c[nH]cn1)NC(=O)[C@H](CCC(N)=O)NC(=O)[C@H](CCC(N)=O)NC(=O)[C@@H](NC(=O)[C@@H](N)Cc1ccccc1)C(C)C)C(=O)NCC(=O)N[C@@H](CO)C(=O)N[C@@H](Cc1c[nH]cn1)C(=O)N[C@@H](CC(C)C)C(=O)N[C@@H](C(C)C)C(=O)N[C@@H](CCC(=O)O)C(=O)N[C@@H](C)C(=O)N[C@@H](CC(C)C)C(=O)N[C@@H](Cc1ccc(O)cc1)C(=O)N[C@@H](CC(C)C)C(=O)N[C@@H](C(C)C)C(=O)N2)C(=O)N[C@@H]([C@@H](C)O)C(=O)N[C@@H](CO)C(=O)N[C@@H]([C@@H](C)CC)C(=O)N3 [Example 2, B(1-29)-B3Q-B29R-TGLGK((eps)myristoyl)GQ-A(1-21)-A18Q-A21G Human insulin] | –
2 | – | B(1-29)-B3Q-B29R-TGLGK((eps)hexadecandioyl-γ-L-Glu)GQ-A(1-21)-A 8Q-A21 G Human insulin [Example 4] | 0.7
3 | – | B(1-29)-B3Q-B29R-TGLGK((eps)octadecandioyl)GQ-A(1-21)-A18Q-A21G Human insulin (FVQQHLCGSHLVEALYLVCGERGFFYTPRTGLGK(octadecandioyl)GQGIVEQCCTSICSLYQLEQYCG; disulfide 19-56, 42-47, 7-43) [Example 3] | 0.1
